Results as given in article PMC5122374 (Oncotarget, 2016).

Tests used:
[1] = system: c-Met phosphorylation and its downstream signaling; experiment: Immunoblotting of c-Met signaling in HGF-stimulated HUVEC cells; assay type: cell-based, human; settings: Simm530 2 h then 100 ng/mL HGF 15 min
Experimental: Cells were cultured under regular growth conditions to exponential growth phase. […] Those cell lysates were subsequently resolved on 10% SDS-PAGE, and transferred to nitrocellulose membranes. Proteins were probed with specific antibody then subsequently with secondary horseradish peroxidase-conjugated antibody. Finally, immunoreactive proteins were detected using an enhanced chemiluminescence detection reagent (Pierce, Thermo Fisher Scientific Inc.).

[2] = Cell proliferation assay, cell panel (SRB or MTT); assay type: cell-based; settings: human, panel of cells with low c-Met expression or activation; read-out: cytotoxicity IC50 values
Experimental: (§1) Cells were seeded in 96-well tissue culture plates. On the next day, cells were exposed to various concentrations of compounds and further cultured for 72 h. For Human umbilical vascular endothelial cells (HUVEC) (passage 3) were transferred to basal medium (without growth factor and serum) for 24 h before compounds treated for another 24 h. Finally, cell proliferation was determined using sulforhodamine B (SRB) assay, Thiazolyl Blue Tetrazolium Bromide (MTT; Sigma) assay or Cell Counting Kit (CCK-8) assay. IC50 values were calculated by concentration-response curve fitting using a SoftMax pro-based four-parameter method.

[3] = system: MDCK cells; experiment: HGF-induced cell branching morphogenesis in collagen; assay type: cell-based, canine; settings: 5 days
Experimental: MDCK cells at a density of 2×10^4 cells/mL in DMEM medium were mixed with an equal volume of collagen I solution and plated at 0.1 mL/well in a 96-well culture plate. […] The medium was replaced with fresh growth medium every 2 days. Images were obtained using an Olympus IX51 microscope after 5 days.

[4] = system: MDCK cells; experiment: HGF-induced scattering assay; assay type: cell-based, canine; settings: 18 to 24 h
Experimental: MDCK cells (1.5×10^3 cells per well) were plated in 96-well plates and grown overnight. […] The cells were fixed with 4% paraformaldehyde for 15 min at room temperature and then stained with 0.2% crystal violet. The assay was performed in triplicate. Images were obtained using an Olympus IX51 microscope.

[5] = system: SNU-5 human gastric carcinoma xenograft; experiment: In vivo antitumor activity, SNU-5 xenograft; parameters: species or system nude mice
Experimental: Female nude mice (4-6 weeks) were housed five or six mice per cage in a specific pathogen-free room with a 12 h light/dark schedule at 25°C ± 1°C and were fed an autoclaved chow diet and water ad libitum. Animal procedures were performed according to institutional ethical guidelines of animal care. […] After that, the well-developed tumors were cut into 1 mm^3 fragments and transplanted s.c. into the right flank of nude mice using a trocar. […] The sizes of the tumors were measured twice per week using microcaliper. The tumor volume (TV) was calculated as: TV = (length×width^2)/2 and the individual relative tumor volume (RTV) was calculated as follows: RTV = Vt/V0, where Vt is the volume on each day, and V0 is the volume at the beginning of the treatment. RTV was shown on indicated days as the median RTV ± SE indicated for groups of mice. […] Tumor specimens were fixed in 4% paraformaldehyde for 24 h. Tumor samples were subsequently paraffin-embedded, and sliced onto microscope slides. […] Staining was detected using the DAB (3, 3'-diaminobenzidine tetrahydrochloride) Liquid System (ZSGB-Bio) and imaged in 5 different fields of each section. Anti-phospho-c-Met and anti-CD31 antibody immunostained sections were counterstained using hematoxylin. Serum levels of human IL-8 were detected by using Human IL-8 Quantikine ELISA Kit (R&D Systems, Inc.) follows the instructions.

[6] = system: NCI-H441 cells; experiment: HGF-induced Matrigel invasion assay; assay type: cell-based, human; settings: NCI-H441, HGF 100 ng/mL, 24 h
Experimental: (§2) For the migration assay, NCI-H441 cells suspended in serum-free medium (1.5×10^5 cells per well) were seeded in 24-well Transwell plates (pore size, 8 μm; Corning). […] The cultures were maintained for 24 h, followed by the removal of non-motile cells at the top of the filter using a cotton swab. The migrating cells were fixed in paraformaldehyde (4%) and stained with crystal violet (0.1%) for 15 min at room temperature. The dye that was taken up by the cells bound to the membrane was released by the addition of 100 μL 10% acetic acid, and the absorbance of the resulting solution was measured at 595 nm using a multiwell spectrophotometer (SpetraMAX 190, from Molecular Devices, Palo Alto, CA, USA). The assay was performed in triplicate. Images were obtained using an Olympus BX51 microscope.
For the invasion assay, NCI-H441 cells were cultured in the top chambers containing Matrigel-coated membrane inserts (Matrigel, BD). The ensuing procedure was identical to the migration assay. The assay was performed in triplicate. Images were obtained using an Olympus BX51 microscope.

[7] = system: EBC-1 human NSCLC xenograft; experiment: In vivo antitumor activity, EBC-1 xenograft
Experimental: . Animal procedures were performed according to institutional ethical guidelines of animal care. […]. After that, the well-developed tumors were cut into 1 mm^3 fragments and transplanted s.c. into the right flank of nude mice using a trocar. When the tumor volume reached 100-200 mm^3, the mice were randomly assigned into vehicle and treatment groups (n = 6 per group). […] The sizes of the tumors were measured twice per week using microcaliper. The tumor volume (TV) was calculated as: TV = (length×width^2)/2 and the individual relative tumor volume (RTV) was calculated as follows: RTV = Vt/V0, where Vt is the volume on each day, and V0 is the volume at the beginning of the treatment. RTV was shown on indicated days as the median RTV ± SE indicated for groups of mice.
Tumor specimens were fixed in 4% paraformaldehyde for 24 h. Tumor samples were subsequently paraffin-embedded, and sliced onto microscope slides. After dewaxing and blocking endogenous peroxidase activity with 3% H2O2, the sections were incubated with 1.5% normal goat serum, followed by overnight incubation at 4°C with anti-phospho-c-Met antibody (Y1234/1235), anti-CD31 antibody or anti-Ki67 antibody. Then, the sections were incubated with biotin-conjugated anti-rabbit IgG for 2 h at 37°C followed by incubating for 1 h with avidin-biotin-peroxidase complex (ABC) using a Vectastain ABC kit(Vector Laboratories). Staining was detected using the DAB (3, 3′-diaminobenzidine tetrahydrochloride) Liquid System (ZSGB-Bio) and imaged in 5 different fields of each section. Anti-phospho-c-Met and anti-CD31 antibody immunostained sections were counterstained using hematoxylin.

[8] = system: NCI-H441 cells; experiment: HGF-induced Transwell migration assay; assay type: cell-based, human; settings: NCI-H441, HGF 100 ng/mL, 24 h
Experimental: as §2

[9] = system: uPA activity in MDCK cells; experiment: Urokinase-type plasminogen activator (uPA) assay; assay type: cell-based, canine; settings: HGF 100 ng/mL, 24 h, dose-dependent
Experimental: MDCK cells (1.5-2 ×10^3 cells per well) were plated in 96-well plate and grown overnight. […] The plate was processed for determination of plasminogen activity by first rinsing wells twice with DMEM (without phenol red), then adding 200 μL of reaction buffer [10%(v/v) 3 mM chromozym PL (Roche) in 100 mM glycine, 40%(v/v) 50 mM Tris (pH 8.2), 50%(v/v) 0.05 unit/mL plasminogen (Roche) in DMEM (without phenol red), and 0.2% Tween-20] to each well. After incubation at 37°C, 5% CO2 for 6 h, the absorbance of each well was read at 405 nm.

[10] = system: MKN-45 cells; experiment: Cell cycle analysis by flow cytometry; assay type: cell-based, human; settings: MKN-45, 24 h
Experimental: (§3) After 24 h, cells were collected, fixed and stained with propidium iodide (10 μg/mL) for 30 min, then analyzed using a flow cytometer (FACS Caliber instrument; Becton, Dickinson & Co.). Data were plotted using CellQuest (Becton, Dickinson &Co).

[11] = system: EBC-1 cells; experiment: Cell cycle analysis by flow cytometry; assay type: cell-based, human; settings: EBC-1, 24 h
Experimental: as §3

[12] = system: NCI-H1993 cells; experiment: Cell proliferation assay (SRB or MTT); assay type: cell-based; settings: Homo sapiens, NCI-H1993, 72 h; read-out: anti-proliferative IC50
Experimental: as §1

[13] = system: MKN-45 cells; experiment: Cell proliferation assay (SRB or MTT); assay type: cell-based; settings: Homo sapiens, MKN-45, 72 h, read-out: anti-proliferative IC50
Experimental: as §1

[14] = system: SNU-5 cells; experiment: Cell proliferation assay (SRB or MTT); assay type: cell-based; settings: Homo sapiens, SNU-5, 72 h, read-out: anti-proliferative IC50
Experimental: as §1

[15] = system: EBC-1 cells; experiment: Cell proliferation assay (SRB or MTT); assay type: cell-based; settings: Homo sapiens, EBC-1, 72 h; read-out: anti-proliferative IC50
Experimental: as §1

[16] = system: MMP-9 expression in NCI-H441 cells; experiment: Gelatin zymography of HGF-induced MMP-9 expression; assay type: cell-based, human; settings: NCI-H441, HGF 100 ng/mL, 24 h, dose-dependent
Experimental: NCI-H441 cells were seeded in a six-well plate (5×10^5 per well) and incubated at 37°C. […] The conditioned medium was collected and centrifuged at 12,000 g for 15 min and concentrated by Micro centrifugal filter device (Millipore Corporation). Then the supernatants were collected and separated on 7.5% SDS-PAGE with 2 mg/mL gelatin incorporated into the gel mixture. Following electrophoresis at 4°C, the gels were rinsed briefly with distilled water and washed three times (15 min each) with 150 ml of 2.5% Triton X-100 solution on a rotary shaker. The gels were then incubated at 37°C for 18 h in 250 ml of 50 mmol/L Tris·HCl (pH 7.5) that contained 10 mmol/L CaCl2, 1 μM ZnCl2, 1% Triton X-100, and 0.02% NaN3. After incubation, the gels were stained with 100 ml of 50% methanol, 10% acetic acid, and 0.1% Coomassie blue R-250 for 3 h, then destained with 50% methanol and 10% acetic acid. Finally, the gels were immersed in distilled water for 20 min and quantified by densitometric analysis using Image Lab software (Bio-Rad Laboratories, Inc.).

SMILES: Cn1cc(-c2cnc3nnc(C(F)(F)c4ccc5ncccc5c4)n3n2)cn1 [Simm530]
- effect on c-Met phosphorylation and its downstream signaling [1]: potently inhibited
- IC50 at 72 h [2]: > 50000 nM
- effect on HGF-induced branching morphogenesis [3]: strongly inhibited
- effect on HGF-induced cell scattering [4]: strongly inhibited
- tumor response ([5]; 12.5 mg/kg and 25 mg/kg oral twice daily): tumor stasis and regression
- intratumoral phosphorylation of c-Met ([5]; 2 hours after the final dosage, immunoblotting and IHC): marked and dose-dependent inhibition
- IL-8 plasma level ([5]; human IL-8 ELISA, day 21, P<0.001): significant reduction
- dose sufficient to block the movement of most cells (invasion) [6]: 4 nM
- tumor response ([7]; 12.5 mg/kg oral twice daily): Tumor stasis
- mice showing no signs of tumor ([7]; 100 mg/kg twice daily): 4 of the 6
- tumor response ([7]; 50 and 100 mg/kg oral twice daily): tumor regression
- intratumoral phosphorylation of c-Met ([7]; 2 hours after the final dosage, immunoblotting): marked and dose-dependent inhibition
- CD31-positive endothelial cells (microvessel density) ([7]; IHC, 2 h after final administration): significant reduction
- tolerance (body weight) ([7]; all tested dosages, data not shown): lack of significant weight loss
- dose sufficient to block the movement of most cells (motility) [8]: 4 nM
- effect on HGF-induced urokinase activity [9]: significantly inhibited
- sub-G1 cell population (apoptosis) [10]: no obvious sub-G1 cell population
- effect on cell cycle distribution ([10]; dose-dependent, P<0.001): G1/S phase arrest
- sub-G1 cell population (apoptosis) [11]: no obvious sub-G1 cell population
- effect on cell cycle distribution ([11]; dose-dependent, P<0.001): G1/S phase arrest
- IC50 [12]: 0.8 nM
- IC50 [13]: 0.7 ± 0.1 nM
- IC50 [14]: 0.9 ± 0.2 nM
- IC50 [15]: 0.7 nM
- effect on HGF-induced MMP expression [16]: significantly inhibited
